Values after ≈ are worked out from the molar mass of the structure shown.
Key:
Staphylococcus aureus [1] = assay: Antibacterial activity against methicillin-resistant Staphylococcus aureus USA300 incubated for 18 to 20 hrs by broth microdilution method; assay type: functional; conditions: time 18-20 hrs
Staphylococcus aureus [2] = assay: Antibacterial activity against methicillin-resistant Staphylococcus aureus NRS 119 incubated for 18 to 20 hrs by broth microdilution method; assay type: functional; conditions: time 18-20 hrs
Staphylococcus aureus [3] = assay: Antibacterial activity against Vancomycin-resistant Staphylococcus aureus 10 incubated for 18 to 20 hrs by broth microdilution method; assay type: functional; conditions: time 18-20 hrs
[4] = test system: Staphylococcus epidermidis; assay: Antibacterial activity against Staphylococcus epidermidis NRS 101 incubated for 18 to 20 hrs by broth microdilution method; assay type: functional; conditions: time 18-20 hrs
Staphylococcus aureus [5] = assay: Antibacterial activity against methicillin-sensitive Staphylococcus aureus NRS 107 incubated for 18 to 20 hrs by broth microdilution method; assay type: functional; conditions: time 18-20 hrs
Staphylococcus aureus [6] = assay: Antibacterial activity against methicillin-resistant Staphylococcus aureus NRS 384 (USA300) incubated for 18 to 20 hrs by broth microdilution method; assay type: functional; conditions: time 18-20 hrs
Staphylococcus aureus [7] = assay: Antibacterial activity against methicillin-sensitive Staphylococcus aureus ATCC 6538 incubated for 18 to 20 hrs by broth microdilution method; assay type: functional; conditions: time 18-20 hrs
Staphylococcus aureus [8] = assay: Antibacterial activity against methicillin-resistant Staphylococcus aureus NRS 123 (USA400) incubated for 18 to 20 hrs by broth microdilution method; assay type: functional; conditions: time 18-20 hrs
Staphylococcus aureus [9] = assay: Antibacterial activity against Vancomycin-resistant Staphylococcus aureus 9 incubated for 18 to 20 hrs by broth microdilution method; assay type: functional; conditions: time 18-20 hrs
Staphylococcus aureus [10] = assay: microbe, parasite or virus in culture; conditions: 3b
Staphylococcus aureus [11] = assay: microbe, parasite or virus in culture; conditions: 3a
Staphylococcus aureus [12] = assay: microbe, parasite or virus in culture; conditions: 1
Staphylococcus aureus [13] = assay: microbe, parasite or virus in culture; conditions: 2
Staphylococcus aureus [14] = assay: microbe, parasite or virus in culture; conditions: 13
Staphylococcus aureus [15] = assay: Antibacterial activity against Vancomycin-resistant Staphylococcus aureus 12 incubated for 18 to 20 hrs by broth microdilution method; assay type: functional; conditions: time 18-20 hrs
Staphylococcus aureus [16] = assay: Antibacterial activity against methicillin-resistant Staphylococcus aureus USA400 NRS 123 assessed as time of post-antibiotic effect at 5 times MIC incubated for 2 hrs followed by compound washout and measured every single 1 hr; assay type: functional
Caco-2 [17] = assay: Cytotoxicity against human Caco-2 cells at 128 ug/ml incubated for 24 hrs by MTS assay; assay type: toxicity, cell-based; conditions: caco-2, 24 h, dose 128 µg/ml
Caco-2 [18] = assay: Cytotoxicity against human Caco-2 cells assessed as reduction in cell viability at 64 ug/ml incubated for 24 hrs by MTS assay; assay type: toxicity, cell-based; conditions: caco-2, 24 h, dose 64 µg/ml
Staphylococcus aureus [19] = assay: Antibacterial activity against methicillin-resistant Staphylococcus aureus NRS 385 (USA500) incubated for 18 to 20 hrs by broth microdilution method; assay type: functional; conditions: time 18-20 hrs
[20] = Cytotoxicity against human HaCaT cells assessed as cell viability at 64 ug/ml incubated for 24 hrs by MTS assay relative to control; assay type: toxicity, cell-based; conditions: at 64 µg/mL, read-out: Activity
Staphylococcus aureus [21] = assay: Antibacterial activity against methicillin-resistant Staphylococcus aureus NRS 386 (USA700) incubated for 18 to 20 hrs by broth microdilution method; assay type: functional; conditions: time 18-20 hrs
Staphylococcus aureus [22] = assay: Induction of drug resistance in methicillin-resistant Staphylococcus aureus USA400 NRS 123 assessed as fold increase in MIC measured after 15 passages by broth microdilution assay; assay type: functional

## C/C(=N\NC(=N)N)c1ccc(NC(=O)Nc2ccc(C3CCC3)cc2)cc1
Staphylococcus aureus [1]
  MIC: ≥ 64 µg/mL

## C/C(=N\NC(=N)N)c1ccc(NC(=O)Nc2ccc(-c3ccccc3)cc2)cc1
Staphylococcus aureus [1]
  MIC: 4 µg/mL (≈ 10.4 µM)

## C/C(=N\NC(=N)N)c1ccc(NC(=O)Nc2ccc(-c3cccn3C)cc2)cc1
Staphylococcus aureus [1]
  MIC: 4 µg/mL (≈ 10.3 µM)

## CC(=O)NC[C@H]1CN(c2ccc(N3CCOCC3)c(F)c2)C(=O)O1 [LINEZOLID]
Staphylococcus aureus [2]
  MIC: 32 µg/mL (≈ 94.9 µM)
Staphylococcus aureus [3]
  MIC: 1 µg/mL (≈ 2.96 µM)
[4]
  MIC: 1 µg/mL (≈ 2.96 µM)
Staphylococcus aureus [5]
  MIC: 1 µg/mL (≈ 2.96 µM)
Staphylococcus aureus [6]
  MIC: 1 µg/mL (≈ 2.96 µM)
Staphylococcus aureus [7]
  MIC: 1 µg/mL (≈ 2.96 µM)
Staphylococcus aureus [8]
  MIC: 1 µg/mL (≈ 2.96 µM)
Staphylococcus aureus [9]
  MIC: 1 µg/mL (≈ 2.96 µM)

## C/C(=N\NC(=N)N)c1ccc(NC(=O)Nc2ccc(Cc3ccccc3)cc2)cc1
Staphylococcus aureus [1]
  MIC: 4 µg/mL (≈ 9.99 µM)

## CN[C@H](CC(C)C)C(=O)N[C@H]1C(=O)N[C@@H](CC(N)=O)C(=O)N[C@H]2C(=O)N[C@H]3C(=O)N[C@H](C(=O)N[C@H](C(=O)O)c4cc(O)cc(O)c4-c4cc3ccc4O)[C@H](O)c3ccc(c(Cl)c3)Oc3cc2cc(c3O[C@@H]2O[C@H](CO)[C@@H](O)[C@H](O)[C@H]2O[C@H]2C[C@](C)(N)[C@H](O)[C@H](C)O2)Oc2ccc(cc2Cl)[C@H]1O [VANCOMYCIN]
Staphylococcus aureus [10]
  MIC: 64 µg/mL (≈ 44.2 µM)
Staphylococcus aureus [3]
  MIC: 64 µg/mL (≈ 44.2 µM)
Staphylococcus aureus [11]
  MIC: 64 µg/mL (≈ 44.2 µM)
Staphylococcus aureus [12]
  MIC: 64 µg/mL (≈ 44.2 µM)
Staphylococcus aureus [13]
  MIC: 64 µg/mL (≈ 44.2 µM)
Staphylococcus aureus [14]
  MIC: > 512 µg/mL
Staphylococcus aureus [9]
  MIC: > 64 µg/mL
Staphylococcus aureus [15]
  MIC: > 64 µg/mL
Staphylococcus aureus [16]
  Time: 3 h

## C/C(=N\NC(=N)N)c1ccc(NC(=O)Nc2ccc(-c3ccccc3C)cc2)cc1
Staphylococcus aureus [1]
  MIC: 4 µg/mL (≈ 9.99 µM)

## C/C(=N\NC(=N)N)c1ccc(NC(=O)Nc2ccc(-c3cccnc3)cc2)cc1
Staphylococcus aureus [1]
  MIC: 4 µg/mL (≈ 10.3 µM)

## C/C(=N\NC(=N)N)c1ccc(NC(=O)Nc2ccc(-c3ccc(C)cc3)cc2)cc1
Staphylococcus aureus [1]
  MIC: 4 µg/mL (≈ 9.99 µM)

## C/C(=N\NC(=N)N)c1ccc(NC(=O)Nc2ccc(-c3ccsc3)cc2)cc1
Staphylococcus aureus [1]
  MIC: 4 µg/mL (≈ 10.2 µM)

## C/C(=N\NC(=N)N)c1ccc(NC(=O)Nc2ccc(C=C3CCC3)cc2)cc1
Staphylococcus aureus [1]
  MIC: 4 µg/mL (≈ 10.6 µM)

## C/C(=N\NC(=N)N)c1ccc(NC(=O)Nc2ccc(/C=C/c3ccccc3)cc2)cc1
Staphylococcus aureus [2]
  MIC: 16 µg/mL (≈ 38.8 µM)
Staphylococcus aureus [3]
  MIC: 8 µg/mL (≈ 19.4 µM)
[4]
  MIC: 8 µg/mL (≈ 19.4 µM)
Staphylococcus aureus [5]
  MIC: 8 µg/mL (≈ 19.4 µM)
Caco-2 [17]
  Activity: Toxic
Caco-2 [18]
  Activity: Non-Toxic
Staphylococcus aureus [6]
  MIC: 2 µg/mL (≈ 4.85 µM)
Staphylococcus aureus [7]
  MIC: 16 µg/mL (≈ 38.8 µM)
Staphylococcus aureus [8]
  MIC: 4 µg/mL (≈ 9.7 µM)
Staphylococcus aureus [9]
  MIC: 16 µg/mL (≈ 38.8 µM)
Staphylococcus aureus [15]
  MIC: 8 µg/mL (≈ 19.4 µM)
Staphylococcus aureus [19]
  MIC: 8 µg/mL (≈ 19.4 µM)
[20]
  viability at 24 h, 64 ug/ml: 100%
Staphylococcus aureus [21]
  MIC: 4 µg/mL (≈ 9.7 µM)
Staphylococcus aureus [22]
  fold change (FC): 1
Staphylococcus aureus [16]
  Time: 3 h
